The assay relates to PBMCs. Put plainly: PBMC culture and IFNγ Elispot. The assay is classed as cell-based, human. Conditions: donors 1 and 4, PBMCs cultured 13 days; label = restimulating peptide. As to the method:
PBMC were isolated from freshly drawn heparinised blood by Ficol-Hypaque (Sigma) gradient centrifugation. PBMC (1.5×10^6 cells/well) were stimulated with single peptides (final concentration 10 μg/ml) in RPMI containing 5% pooled autologous human serum, 2 mM glutamine, 20 mM HEPES, Penicillin-streptomycin (1%), 10 ng/ml recombinant human IL-15 and 5 ng/ml recombinant human IL-7 in a final volume of 2 ml. Recombinant human IL-2 was added on day 3 at 20 IU/ml. On day 13 cells were washed and added to human IFN elispot assay. Elispot assays were performed using human IFNγ capture and detection reagents according to the manufacturer's instructions (Mabtech, Sweden). In brief, anti-IFNγ antibody was coated onto wells of 96-well Immobilin-P plate. Synthetic peptides (at 10 μg/ml) and 1×10^5 per well PBMCs were added to the wells of the plate in quadruplicate and plates incubated for 20 hrs at 37° C. After incubation, captured IFNγ was detected by biotinylated anti-IFN antibody and developed with a streptavidin alkaline phosphatase and chromogenic substrate. Spots were analysed and counted using an automated plate reader (Cellular Technologies Ltd).

Square brackets hold non-standard residues; d marks the D form. Ends that are not written are not given here. Cit = NC(=O)NCCC[C@H](N)C(=O)O

Regarding “VIGMDVAASEFF-CIT-SGKYDLD (VIGMDVAASEFF[Cit]SGKYDLD; listed as Homo sapiens) [Enolase 241cit]”, the “IFNγ response on restimulation” value is “show responses”.

(Values after patent publication US11382985B2, “Anti-tumour immune responses to modified self-epitopes” (Scancell Limited, priority 2015, dated 2022).)
